Assay results as given in ChEMBL document CHEMBL5244227, “Applications of fluorine-containing amino acids for drug design” (Eur J Med Chem, 2020).
Blank lines part the entries; values can stand above or below the compound they belong to.

Legend:
[1] = Inhibition of HCV NS3/4A protease; set-up: species or system Hepacivirus hominis
[2] = In vivo inhibition of BACE-1 in wild type Hartley guinea pig assessed as reduction in amyloid beta level in cortex at 30 mg/kg, po administered twice daily for 2.5 days; assay type: functional; conditions: Cavia porcellus, 60 h, time 2.5 day
[3] = In vivo inhibition of BACE-1 in wild type Hartley guinea pig assessed as reduction in amyloid beta level in cerebrospinal fluid at 30 mg/kg, po administered twice daily for 2.5 days; assay type: functional; conditions: Cavia porcellus, 60 h, time 2.5 day
[4] = molecular target: ATP-dependent translocase ABCB1 (Homo sapiens, UniProt P08183); assay: Substrate activity at human P-gp assessed as transport ratio
Hepatitis C virus = assay: Antiviral activity against HCV; assay type: functional, organism-based, Hepacivirus hominis
[5] = Oral bioavailability in rat; assay type: ADME, organism-based; conditions: in vivo
[6] = Binding affinity to CGRP (unknown origin); set-up: species or system Homo sapiens
Plasmodium berghei = assay: Antimalarial activity against Plasmodium berghei infected in mouse model infected with assessed as reduction in parasitemia at 100 mg/kg; assay type: functional; set-up: scale not given: the % may be the effect or the level left

Chain of ATP-dependent translocase ABCB1 (P08183 whole entry): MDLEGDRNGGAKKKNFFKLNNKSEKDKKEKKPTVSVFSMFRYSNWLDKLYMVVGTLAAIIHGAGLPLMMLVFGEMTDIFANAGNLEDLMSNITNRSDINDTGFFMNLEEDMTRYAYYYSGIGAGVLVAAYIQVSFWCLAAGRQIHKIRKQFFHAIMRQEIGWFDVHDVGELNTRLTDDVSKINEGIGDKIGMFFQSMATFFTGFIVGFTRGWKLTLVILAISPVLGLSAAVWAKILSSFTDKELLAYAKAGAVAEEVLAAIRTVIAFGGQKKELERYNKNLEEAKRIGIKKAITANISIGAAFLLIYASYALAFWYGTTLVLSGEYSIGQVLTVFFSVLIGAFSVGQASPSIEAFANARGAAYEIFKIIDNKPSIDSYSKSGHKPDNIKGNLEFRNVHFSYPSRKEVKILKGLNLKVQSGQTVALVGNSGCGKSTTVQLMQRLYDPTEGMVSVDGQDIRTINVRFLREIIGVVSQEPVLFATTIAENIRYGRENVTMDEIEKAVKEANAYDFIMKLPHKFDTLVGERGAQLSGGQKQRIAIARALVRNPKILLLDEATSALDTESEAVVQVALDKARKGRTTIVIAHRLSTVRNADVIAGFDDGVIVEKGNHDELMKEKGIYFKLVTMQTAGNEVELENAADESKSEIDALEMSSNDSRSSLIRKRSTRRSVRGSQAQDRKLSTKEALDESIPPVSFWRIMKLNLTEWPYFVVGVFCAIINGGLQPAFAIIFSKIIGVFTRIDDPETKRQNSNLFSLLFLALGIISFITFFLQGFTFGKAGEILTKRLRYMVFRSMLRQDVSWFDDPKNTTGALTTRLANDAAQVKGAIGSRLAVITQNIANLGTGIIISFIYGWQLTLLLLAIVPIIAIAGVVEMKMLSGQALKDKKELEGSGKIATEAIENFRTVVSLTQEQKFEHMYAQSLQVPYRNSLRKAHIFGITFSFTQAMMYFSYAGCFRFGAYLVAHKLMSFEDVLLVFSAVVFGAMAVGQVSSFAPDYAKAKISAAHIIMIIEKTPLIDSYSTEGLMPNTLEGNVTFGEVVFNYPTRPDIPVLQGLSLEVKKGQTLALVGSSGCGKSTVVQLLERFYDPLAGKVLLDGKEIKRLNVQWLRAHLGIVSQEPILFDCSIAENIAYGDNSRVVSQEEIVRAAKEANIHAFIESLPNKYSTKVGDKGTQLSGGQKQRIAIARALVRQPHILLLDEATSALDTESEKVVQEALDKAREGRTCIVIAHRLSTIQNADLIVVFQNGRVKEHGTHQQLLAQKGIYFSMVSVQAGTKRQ

SMILES: CC(=O)N[C@@H](Cc1cc(F)cc(F)c1)[C@H](O)CNC1(c2cccc(C(C)(C)C(F)F)c2)CC1
- inhibition in vivo at 30 mg/kg [2]: 28%
- inhibition in vivo at 30 mg/kg [3]: 32%

SMILES: COc1cnc(O[C@@H]2C[C@@H](C(=O)N[C@]3(C(=O)NS(=O)(=O)C4CC4)C[C@H]3C)N(C(=O)C(NC(=O)OC(C)(C)C)C(C)(C)C)C2)c2cc(Cl)ccc12 (single isomer, unassigned)
- IC50 [1]: 13 nM

SMILES: COc1ccc2c(O[C@@H]3C[C@H]4C(=O)N[C@]5(P(=O)(O)Cc6c(F)cccc6F)C[C@H]5CCCCCCC[C@H](NC(=O)OC5CCCC5)C(=O)N4C3)cc(-c3csc(NC(C)C)n3)nc2c1Cl [GS-9256]
- IC50 [1]: 4 nM
- Ki [1]: 0.089 nM
- EC50 (Hepatitis C virus): 20 nM

SMILES: COc1cnc(O[C@@H]2C[C@@H](C(=O)N[C@]3(C(=O)NS(=O)(=O)C4CC4)C[C@H]3C(F)(F)F)N(C(=O)C(NC(=O)OC(C)(C)C)C(C)(C)C)C2)c2cc(Cl)ccc12 (single isomer, unassigned)
- IC50 [1]: 17 nM

SMILES: COc1ccc2c(O[C@@H]3C[C@H]4C(=O)N[C@]5(P(=O)(O)Cc6ccccc6)C[C@H]5/C=C/CCCCC[C@H](NC(=O)OC5CCCC5)C(=O)N4C3)cc(-c3csc(NC(C)C)n3)nc2c1
- EC50 (Hepatitis C virus): 10 nM

SMILES: CC1CCc2c([nH]c3ccccc23)C2(N1)C(=O)Nc1ccc(Cl)cc12 (stereo not given)
- Activity (Plasmodium berghei): 96%

SMILES: COc1ccc2c(O[C@@H]3C[C@H]4C(=O)N[C@]5(C(=O)NS(=O)(=O)C6CC6)C[C@@]5(F)/C=C\CCCCN(C)C(=O)[C@@H]4C3)cc(-c3nc(C(C)C)cs3)nc2c1C
- EC50 [1]: 15000 nM

SMILES: NCCCC[C@H](NC(=O)[C@@H](Cc1cc(Br)c(O)c(Br)c1)NC(=O)N1CCC(N2Cc3ccccc3NC2=O)CC1)C(=O)N1CCN(c2ccncc2)CC1 [OLCEGEPANT]
- Ki [6]: 0.01 nM

The next lines start with the values.

- EC50 [1]: 8.1 nM
SMILES: COc1ccc2c(O[C@@H]3C[C@H]4C(=O)N[C@]5(C(=O)NS(=O)(=O)C6CC6)C[C@H]5/C=C\CCCCN(C)C(=O)[C@@H]4C3)cc(-c3nc(C(C)C)cs3)nc2c1C

- Ratio [4]: 1.7
SMILES: C[C@@]1(c2cc(F)cc(F)c2)CN([11CH3])C2(CCCC2)C(=O)N1CC(=O)Nc1ccc2c(c1)C[C@@]1(C2)C(=O)Nc2ncccc21

- bioavailability [5]: 0.5%
SMILES: C=C[C@@H]1C[C@]1(NC(=O)[C@@H]1C[C@@H](Oc2cc(-c3csc(NC(C)C)n3)nc3cc(OC)ccc23)CN1C(=O)[C@@H](NC(=O)OC1CCCC1)C(C)(C)C)P(=O)(O)Cc1ccccc1

- IC50 [1]: 3080 nM
SMILES: CC[C@H](NC(=O)[C@@H]1C[C@@H](Oc2ncc(OC)c3ccc(Cl)cc23)CN1C(=O)C(NC(=O)OC(C)(C)C)C(C)(C)C)C(=O)NS(=O)(=O)C1CC1 (single isomer, unassigned)

- Ki [6]: 0.067 nM
SMILES: O=C(CN1C(=O)C2(CCCC2)NC[C@@H]1c1ccccc1)Nc1ccc2c(c1)C[C@@]1(C2)C(=O)Nc2ncccc21

- Ki [6]: 0.57 nM
SMILES: O=C(CN1C(=O)C2(CCCC2)NC[C@@H]1c1cc(F)cc(F)c1)Nc1ccc2c(c1)C[C@@]1(C2)C(=O)Nc2ncccc21

- IC50 [1]: 1 nM
SMILES: COc1cnc(O[C@@H]2C[C@@H](C(=O)N[C@]3(C(=O)NS(=O)(=O)C4CC4)C[C@H]3CC(F)F)N(C(=O)C(NC(=O)OC(C)(C)C)C(C)(C)C)C2)c2cc(Cl)ccc12 (single isomer, unassigned)

- Ki [6]: 0.017 nM
SMILES: O=C(CN1C(=O)C2(CCCC2)NC[C@H]1c1cc(F)cc(F)c1)Nc1ccc2c(c1)C[C@@]1(C2)C(=O)Nc2ncccc21 [MK3207]

- IC50 [1]: 976 nM
SMILES: COc1cnc(O[C@@H]2C[C@@H](C(=O)N[C@@H](CC(F)F)C(=O)NS(=O)(=O)C3CC3)N(C(=O)C(NC(=O)OC(C)(C)C)C(C)(C)C)C2)c2cc(Cl)ccc12 (single isomer, unassigned)
